Measurements published in article PMC8480901 (PLoS ONE, 2021).
Values joined by “and” are separate entries in the source; they are usually repeats but may differ in a detail not shown here. Identical values can stand only once.

Tested on: J774.2 mouse macrophages
Test: LPS-induced cytokine and chemokine levels in J774.2 mouse macrophage cell supernatant (ELISA)
Format: cell-based
Conditions: for CXCL1 % reduction / CXCL1 [pg/mL] Mean / CXCL2 % reduction / CXCL2 [pg/mL] Mean / MMP9 % reduction / MMP9 [pg/mL] Mean: J774.2 cells; for CXCL1 % reduction / CXCL1 [pg/mL] Mean / CXCL2 % reduction / CXCL2 [pg/mL] Mean / MMP9 % reduction / MMP9 [pg/mL] Mean / CCl2, % reduction / CCl2, Mean / GM-CSF % reduction / GM-CSF Mean / IL-1β % reduction / IL-1β Mean / IL-6 % reduction / IL-6 Mean / TNF-α % reduction / TNF-α Mean / CCl2 / CXCL1 / GM-CSF / IL-1β / IL-6 / TNF-α: LPS; for CCl2, % reduction / CCl2, Mean / GM-CSF % reduction / GM-CSF Mean / IL-1β % reduction / IL-1β Mean / IL-6 % reduction / IL-6 Mean / TNF-α % reduction / TNF-α Mean / CCl2 / CXCL1 / GM-CSF / IL-1β / IL-6 / TNF-α: J774.2 supernatant; for CCl2 / CXCL1 / GM-CSF / IL-1β / IL-6 / TNF-α: individual replicate

C=C[C@]1(C)C[C@@H](OC(=O)CS[C@@H]2CC[C@@H](N)C[C@H]2O)[C@]2(C)[C@H](C)CC[C@]3(CCC(=O)[C@H]32)[C@@H](C)[C@@H]1O [Lefamulin]
CXCL1 % reduction (compound 0.03 µM): -4.29% | CXCL1 [pg/mL] Mean (compound 0.03 µM): 27 pg/mL | CXCL2 % reduction (compound 0.03 µM): 3% | CXCL2 [pg/mL] Mean (compound 0.03 µM): 31653 pg/mL | MMP9 % reduction (compound 0.03 µM): 2.7% | MMP9 [pg/mL] Mean (compound 0.03 µM): 939 pg/mL | CXCL1 % reduction (compound 0.1 µM): 0.477% | CXCL1 [pg/mL] Mean (compound 0.1 µM): 25 pg/mL | CXCL2 % reduction (compound 0.1 µM): 7% | CXCL2 [pg/mL] Mean (compound 0.1 µM): 30382 pg/mL | MMP9 % reduction (compound 0.1 µM): 16% | MMP9 [pg/mL] Mean (compound 0.1 µM): 819 pg/mL | CXCL1 % reduction (compound 0.3 µM): -4.29% | CXCL1 [pg/mL] Mean (compound 0.3 µM): 27 pg/mL | CXCL2 % reduction (compound 0.3 µM): 0.626% | CXCL2 [pg/mL] Mean (compound 0.3 µM): 32419 pg/mL | MMP9 % reduction (compound 0.3 µM): 14% | MMP9 [pg/mL] Mean (compound 0.3 µM): 840 pg/mL | CXCL1 % reduction (compound 1 µM): -0.703% | CXCL1 [pg/mL] Mean (compound 1 µM): 26 pg/mL | CXCL2 % reduction (compound 1 µM): -10% | CXCL2 [pg/mL] Mean (compound 1 µM): 35898 pg/mL | MMP9 % reduction (compound 1 µM): 2.38% | MMP9 [pg/mL] Mean (compound 1 µM): 942 pg/mL | CXCL1 % reduction (compound 3 µM): -7.61% | CXCL1 [pg/mL] Mean (compound 3 µM): 28 pg/mL | CXCL2 % reduction (compound 3 µM): -7% | CXCL2 [pg/mL] Mean (compound 3 µM): 34917 pg/mL | MMP9 % reduction (compound 3 µM): 7% | MMP9 [pg/mL] Mean (compound 3 µM): 900 pg/mL | CXCL1 % reduction (compound 10 µM): -36% | CXCL1 [pg/mL] Mean (compound 10 µM): 35 pg/mL | CXCL2 % reduction (compound 10 µM): -7% | CXCL2 [pg/mL] Mean (compound 10 µM): 34821 pg/mL | MMP9 % reduction (compound 10 µM): 14% | MMP9 [pg/mL] Mean (compound 10 µM): 838 pg/mL | CXCL1 % reduction (compound 30 µM): -238% | CXCL1 [pg/mL] Mean (compound 30 µM): 87 pg/mL | CXCL2 % reduction (compound 30 µM): -16% | CXCL2 [pg/mL] Mean (compound 30 µM): 37862 pg/mL | MMP9 % reduction (compound 30 µM): 60% | MMP9 [pg/mL] Mean (compound 30 µM): 423 pg/mL | CXCL1 % reduction (compound 100 µM): -827% | CXCL1 [pg/mL] Mean (compound 100 µM): 237 pg/mL | CXCL2 % reduction (compound 100 µM): -16% | CXCL2 [pg/mL] Mean (compound 100 µM): 37744 pg/mL | MMP9 % reduction (compound 100 µM): 96% | MMP9 [pg/mL] Mean (compound 100 µM): 91 pg/mL | IL-6 and IL-1β levels in supernatant (J774.2 macrophages): trend toward reduction | levels of the measured LPS-induced cytokines, chemokines, or MMP-9 in supernatants (J774.2 mouse macrophages, concentrations tested (0.03 to 10 μM shown)): little to no reduction | CCl2, % reduction (0.03 µM): 1.79% | CCl2, Mean (0.03 µM): 35400 pg/mL | GM-CSF % reduction (0.03 µM): 52% | GM-CSF Mean (0.03 µM): 672 pg/mL | IL-1β % reduction (0.03 µM): -26% | IL-1β Mean (0.03 µM): 241 pg/mL | IL-6 % reduction (0.03 µM): -14% | IL-6 Mean (0.03 µM): 88112 pg/mL | TNF-α % reduction (0.03 µM): -16% | TNF-α Mean (0.03 µM): 1587 pg/mL | CCl2 (0.03 µM): 33453 pg/mL and 37346.9 pg/mL | CXCL1 (0.03 µM): 25.7 pg/mL and 27.7 pg/mL | GM-CSF (0.03 µM): 625.6 pg/mL and 719.3 pg/mL | IL-1β (0.03 µM): 233.691 pg/mL and 247.723 pg/mL | IL-6 (0.03 µM): 83483 pg/mL and 92741 pg/mL | TNF-α (0.03 µM): 1586.9 pg/mL and 1587.5 pg/mL | CCl2, % reduction (0.1 µM): 8% | CCl2, Mean (0.1 µM): 33260 pg/mL | GM-CSF % reduction (0.1 µM): 50% | GM-CSF Mean (0.1 µM): 691 pg/mL | IL-1β % reduction (0.1 µM): -10% | IL-1β Mean (0.1 µM): 209 pg/mL | IL-6 % reduction (0.1 µM): -11% | IL-6 Mean (0.1 µM): 85917 pg/mL | TNF-α % reduction (0.1 µM): -16% | TNF-α Mean (0.1 µM): 1579 pg/mL | CCl2 (0.1 µM): 30882.1 pg/mL and 35637.1 pg/mL | CXCL1 (0.1 µM): 26.3 pg/mL and 24.7 pg/mL | GM-CSF (0.1 µM): 718.9 pg/mL and 663.8 pg/mL | IL-1β (0.1 µM): 208.032 pg/mL and 210.141 pg/mL | IL-6 (0.1 µM): 86925 pg/mL and 84909 pg/mL | TNF-α (0.1 µM): 1571.9 pg/mL and 1586.9 pg/mL | CCl2, % reduction (0.3 µM): 0.431% | CCl2, Mean (0.3 µM): 35870 pg/mL | GM-CSF % reduction (0.3 µM): 54% | GM-CSF Mean (0.3 µM): 647 pg/mL | IL-1β % reduction (0.3 µM): -6% | IL-1β Mean (0.3 µM): 202 pg/mL | IL-6 % reduction (0.3 µM): -13% | IL-6 Mean (0.3 µM): 87246 pg/mL | TNF-α % reduction (0.3 µM): -8.54% | TNF-α Mean (0.3 µM): 1483 pg/mL | CCl2 (0.3 µM): 32973.5 pg/mL and 38766.3 pg/mL | CXCL1 (0.3 µM): 24.9 pg/mL and 28.5 pg/mL | GM-CSF (0.3 µM): 644.4 pg/mL and 648.8 pg/mL | IL-1β (0.3 µM): 202.166 pg/mL and 201.189 pg/mL | IL-6 (0.3 µM): 86199 pg/mL and 88294 pg/mL | TNF-α (0.3 µM): 1489.0 pg/mL and 1477.5 pg/mL | CCl2, % reduction (1 µM): -9% | CCl2, Mean (1 µM): 39289 pg/mL | GM-CSF % reduction (1 µM): 60% | GM-CSF Mean (1 µM): 564 pg/mL
